Assay results taken from patent publication US5021597A, “Novel acrylic acid salts, a process for their preparation, pharmaceutical compositions containing them and their use in the medicine” (Richter Gedeon Vegyeszeti Gyar Rt., priority 1989, dated 1991).
Structures can show the parent of a compound that is named as a salt.

Columns and labels:
[1] = test system: gastric injuries induced by acidic alcohol; test: gastric injuries induced by acidic alcohol (cytoprotection); assay type: in vivo, rat; conditions: acidic alcohol gastric injury, female rats, pretreatment 30 min; for % Inhibition at a dose of 10 mg/kg p.o.: Table 2
Procedure: (1) Assay of gastric injuries induced by acidic alcohol [A. Robert, Gastroenterology, 77, 761-767 (1979)]
Female rats weighing about 120 to 150 g fasted for 24 hours were used in this test. Test compounds suspended with Tween 80 were given orally to the animals through an intragastric tube. After a certain period (pretreatmenttime) acidic alcohol was given through the intragastric tube at a dose or 0.5 ml per 100 g of body weight. The animals were sacrificed after 1 hour, their stomach was removed and incised along the great curve. The length of the reddish-brown strips (haemorrhagic lesions) was measured and the mean total length per stomach was calculated. The biological activity of the test compounds was given compared to the control group.

[2] = test system: gastric acid secretion; test: inhibition of gastric acid secretion by using pylorus ligature (Shay); assay type: in vivo, Wistar rat; conditions: pretreatment 30 min; for % Inhibition in the amount of the acid at a dose of 25 mg/kg p.o.: Table 4, female Wistar rats; for ED50 p.o.: 240 min
Procedure: (2) Assay of the inhibition of gastric acid secretion by using pylorus ligature [Shay et al., Gastroenterology, 5, 43-61 (1945)]
Before ligating the pylorus the test compounds suspended with Tween were given orally at a volume of 0.5 ml per […] of body weight to female Wistar rats fasted previously for 20 hours. The animals were sacrificed 4 hours after the operation, and the amount of the acid in the stomach was measured by titration with 0.01N sodium hydroxide solution in the presence of phenolphtalein indicator. The pH value of the content of the stomach was measured by using a pH-meter (Radelkis, Type OP-211/1).

[3] = test system: Campylobacter pylori; test: activity against Campylobacter pylori by agar diffusion and agar dilution assays; assay type: cell-based; conditions: Helicobacter pylori, Campylobacter pylori cultures isolated from 5 different ulcerous patients, read-out: MIC (minimal inhibitory concentration)
Procedure: The activity of the compounds of the present invention against Campylobacter pylori was investigated by agar diffusion and agar dilution assays. The experiments were carried out with Campylobacter pylori cultures isolated from 5 different ulcerous patients.

| Molecule | ED50 p.o. ([1]; Table 1) | % Inhibition in the amount of the acid at a dose of 25 mg/kg p.o. [2] | ED50 p.o. ([2]; Table 3, female Wistar rats) | further results |
| --- | --- | --- | --- | --- |
| O=C(O)/C=C/S(=O)(=O)c1ccccc1 [A, bismuth tris [3-phenylsulfonyl-2(E)-propenoate] pentahydrate] | – | – | – | ED50 ([1]; Rattus norvegicus, po, Table 1): 4 mg/kg; ED50 ([2]; Rattus norvegicus, po, 4 h, Table 3, female Wistar rats): 8.6 mg/kg |
| O=C(O)/C=C/S(=O)(=O)c1ccccc1 [F, (S)-lysine salt of 3-phenylsulfonyl-2(E)-propenoic acid] | 4.1 mg/kg | 50% | – | – |
| O.O.O.O.O=C([O-])/C=C/S(=O)(=O)c1ccccc1.O=C([O-])/C=C/S(=O)(=O)c1ccccc1.[Zn+2] [H, zinc bis [3-phenylsulfonyl-2(E)-propenoate] tetrahydrate] | 3.2 mg/kg | – | 8.0 mg/kg | – |
| zinc bis [phenylthio-2(Z)-propenoate] hydrate | – | – | – | % Inhibition at a dose of 10 mg/kg p.o. [1]: 61% |
| O=C(O)/C=C/Sc1ccccc1 [G, bismuth tris [3-phenylthio-2(E)-propenoate] trihydrate] | – | 15% | – | – |
| O=C(O)/C=C/S(=O)(=O)c1ccccc1 [C, monoethanolamine salt of 3-phenylsulfonyl-2(E)-propenoic acid] | 3.6 mg/kg | – | 11.0 mg/kg | – |
| O=C(O)/C=C/S(=O)(=O)c1ccccc1 [E, (S)-arginine salt of 3-phenylsulfonyl-2(E)-propenoic acid] | – | 56% | – | % Inhibition at a dose of 10 mg/kg p.o. [1]: 73% |
| O=C(O)/C=C/S(=O)(=O)c1ccccc1 [D, bismuth bis [3-phenylsulfonyl-2(E)-propenoate] chloride hexahydrate] | 3.1 mg/kg | – | 12.0 mg/kg | MIC [3]: 250 to 1000 µg/mL |
